Experiments:
[1] = target: T1, recombinant MPX (rMPX), mitochondrial peroxiredoxin (Trypanosoma cruzi, UniProt O79469); test: inhibition of peroxynitrite decomposition (CBA oxidation, fluorescence); SDS-PAGE of non-reducible adducts; type: biochemical; conditions: covalent; 100 µM CA, 1 h with pre-reduced MPX (5 µM), excess removed; SIN-1 as peroxynitrite source; holdase activity not inhibited
T1 construct: His-tagged, expressed in E. coli BL21, nickel column; pre-reduced with DTT, DTT removed

[2] = target: T1, recombinant MPX (rMPX), mitochondrial peroxiredoxin; test: competition with peroxynitrite-dependent CBA oxidation (fluorescence); type: biochemical; conditions: mere turnover; pre-reduced MPX 5 µM, peroxynitrite flux ~3 µM/min from SIN-1, CBA 50 µM

T1 sequence (O79469 entry or part of it): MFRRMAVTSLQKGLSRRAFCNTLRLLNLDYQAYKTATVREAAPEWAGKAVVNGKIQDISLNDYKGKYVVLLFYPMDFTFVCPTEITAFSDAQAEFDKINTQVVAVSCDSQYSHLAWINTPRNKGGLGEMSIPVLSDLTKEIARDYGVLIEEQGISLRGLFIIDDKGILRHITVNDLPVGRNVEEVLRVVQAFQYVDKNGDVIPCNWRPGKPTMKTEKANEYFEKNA

| Compound | inhibition of peroxynitrite decomposition (CBA oxidation, fluorescence); SDS-PAG [1] | competition with peroxynitrite-dependent CBA oxidation (fluorescence) [2] |
| --- | --- | --- |
| [O-][n+]1c(CBr)c(CBr)[n+]([O-])c2ccccc21 [conoidin A] | CA reacts and crosslinks recombinant MPX |  |
| O=NOO [peroxynitrite] |  | The decomposition of peroxynitrite by MPX reduces the oxidant generation of coumarin |
